Measurements reported in ChEMBL document CHEMBL1649485, “High prevalence of qnr genes in commensal enterobacteria from healthy children in Peru and Bolivia” (2009).
Values after ≈ are worked out from the molar mass of the structure shown.

Columns and labels:
Klebsiella pneumoniae [1] = test: Antimicrobial activity against Klebsiella pneumoniae isolate C2 harboring qnrS1 gene by agar dilution method; format: functional
Klebsiella pneumoniae [2] = test: microbe, parasite or virus in culture; settings: isolate M2
Description: Antimicrobial activity against Klebsiella pneumoniae isolate M2 harboring qnrS1 gene by agar dilution method

Klebsiella pneumoniae [3] = test: Antimicrobial activity against Klebsiella pneumoniae isolate Y1 harboring qnrB19 gene by agar dilution method; format: functional
Klebsiella pneumoniae [4] = test: Antimicrobial activity against Klebsiella pneumoniae isolate M1 harboring qnrB19 gene by agar dilution method; format: functional
Klebsiella oxytoca [5] = test: Antimicrobial activity against Klebsiella oxytoca isolate M2 harboring qnrS1 gene by agar dilution method; format: functional
Enterobacter cloacae [6] = test: Antimicrobial activity against Enterobacter cloacae clinical isolate assessed as resistant isolate; format: functional
Klebsiella oxytoca [7] = test: Antimicrobial activity against Klebsiella oxytoca clinical isolate assessed as resistant isolate; format: functional
Klebsiella pneumoniae [8] = test: Antimicrobial activity against Klebsiella pneumoniae isolate V2 harboring qnrS1 gene by agar dilution method; format: functional
Klebsiella pneumoniae [9] = test: Antimicrobial activity against Klebsiella pneumoniae isolate Y2 harboring qnrS1 gene by agar dilution method; format: functional
Klebsiella oxytoca [10] = test: Antimicrobial activity against Klebsiella oxytoca clinical isolate assessed as susceptible isolate; format: functional; settings: pooled result: one value given for 4 cell lines, strains, targets or settings
Escherichia coli [11] = test: Antimicrobial activity against Escherichia coli isolate M3 harboring qnrS1 gene by agar dilution method; format: functional
Citrobacter freundii [12] = test: Antimicrobial activity against Citrobacter freundii clinical isolate by agar dilution method; format: functional
Klebsiella pneumoniae [13] = test: Antimicrobial activity against qnrB-positive Klebsiella pneumoniae clinical isolate assessed as susceptible isolate; format: functional
Escherichia hermannii [14] = test: Antimicrobial activity against Escherichia hermannii isolate C1 harboring qnrB19 gene by agar dilution method; format: functional; settings: Atlantibacter hermannii
Klebsiella oxytoca [15] = test: Antimicrobial activity against Klebsiella oxytoca clinical isolate by agar dilution method; format: functional
Citrobacter freundii [16] = test: Antimicrobial activity against Citrobacter freundii isolate V1 harboring qnrB10 gene by agar dilution method; format: functional
Escherichia coli [17] = test: Antimicrobial activity against qnrB-positive Escherichia coli clinical isolate assessed as resistant isolate; format: functional
Citrobacter freundii [18] = test: Antimicrobial activity against Citrobacter freundii clinical isolate assessed as resistant isolate; format: functional
Escherichia coli [19] = test: Antimicrobial activity against qnrS-positive Escherichia coli clinical isolate assessed as resistant isolate; format: functional
Escherichia coli [20] = test: Antimicrobial activity against qnrB-positive Escherichia coli clinical isolate assessed as susceptible isolate; format: functional
Enterobacter cloacae [21] = test: Antimicrobial activity against Enterobacter cloacae isolate V1 harboring qnrB2 gene by agar dilution method; format: functional
Klebsiella pneumoniae [22] = test: Antimicrobial activity against qnrS-positive Klebsiella pneumoniae clinical isolate assessed as resistant isolate; format: functional
Escherichia coli [23] = test: Antimicrobial activity against qnrS-positive Escherichia coli clinical isolate assessed as susceptible isolate; format: functional
Escherichia coli [24] = test: Antimicrobial activity against qnrB-positive Escherichia coli clinical isolate by agar dilution method; format: functional
Escherichia coli [25] = test: Antimicrobial activity against qnrB/S-positive Escherichia coli clinical isolate assessed as susceptible isolate; format: functional
Klebsiella pneumoniae [26] = test: Antimicrobial activity against qnrB-positive Klebsiella pneumoniae clinical isolate assessed as resistant isolate; format: functional
Klebsiella oxytoca [27] = test: Antimicrobial activity against Klebsiella oxytoca isolate M1 harboring qnrB19 gene by agar dilution method; format: functional
Escherichia hermannii [28] = test: Antimicrobial activity against Escherichia hermannii clinical isolate by agar dilution method; format: functional; settings: Atlantibacter hermannii
Enterobacter cloacae [29] = test: Antimicrobial activity against Enterobacter cloacae clinical isolate by agar dilution method; format: functional
Escherichia coli [30] = test: Antimicrobial activity against qnrB/S-positive Escherichia coli clinical isolate assessed as resistant isolate; format: functional
Escherichia hermannii [31] = test: Antimicrobial activity against Escherichia hermannii clinical isolate assessed as resistant isolate; format: functional, Atlantibacter hermannii
Klebsiella pneumoniae [32] = test: Antimicrobial activity against qnrS-positive Klebsiella pneumoniae clinical isolate assessed as susceptible isolate; format: functional
Klebsiella pneumoniae [33] = test: microbe, parasite or virus in culture; settings: isolate V1
Description: Antimicrobial activity against Klebsiella pneumoniae isolate V1 harboring qnrB2 gene by agar dilution method

Escherichia coli [34] = test: Antimicrobial activity against Escherichia coli isolate Y3 harboring qnrS1 gene by agar dilution method; format: functional
Klebsiella pneumoniae [35] = test: Antimicrobial activity against qnrB-positive Klebsiella pneumoniae clinical isolate by agar dilution method; format: functional
Escherichia coli [36] = test: Antimicrobial activity against qnrS-positive Escherichia coli clinical isolate by agar dilution method; format: functional
Escherichia coli [37] = test: Antimicrobial activity against qnrB/S-positive Escherichia coli clinical isolate by agar dilution method; format: functional
Escherichia coli [38] = test: Antimicrobial activity against Escherichia coli isolate Y1 harboring qnrB19 gene by agar dilution method; format: functional
Klebsiella pneumoniae [39] = test: Antimicrobial activity against qnrS-positive Klebsiella pneumoniae clinical isolate by agar dilution method; format: functional
Escherichia coli [40] = test: Antimicrobial activity against Escherichia coli isolate Y2 harboring qnrS1 gene by agar dilution method; format: functional
Escherichia coli [41] = test: Antimicrobial activity against Escherichia coli isolate V1 harboring qnrB19 gene by agar dilution method; format: functional
Escherichia coli [42] = test: Antimicrobial activity against Escherichia coli isolate M1 harboring qnrB19 gene by agar dilution method; format: functional
Escherichia coli [43] = test: Antimicrobial activity against Escherichia coli isolate M2 harboring qnrS1 gene by agar dilution method; format: functional
Escherichia coli [44] = test: Antimicrobial activity against Escherichia coli isolate C1 harboring qnrB19 gene by agar dilution method; format: functional

Which results are given for O=C(O)c1cn(C2CC2)c2cc(N3CCNCC3)c(F)cc2c1=O [CIPROFLOXACIN]?
MIC (Klebsiella pneumoniae [1]): 2 µg/mL (≈ 6.04 µM); MIC (Klebsiella pneumoniae [2]): 4 µg/mL (≈ 12.1 µM); MIC (Klebsiella pneumoniae [3]): 2 µg/mL (≈ 6.04 µM); MIC (Klebsiella pneumoniae [4]): 2 µg/mL (≈ 6.04 µM); MIC (Klebsiella oxytoca [5]): 4 µg/mL (≈ 12.1 µM)

C[C@H]1COc2c(N3CCN(C)CC3)c(F)cc3c(=O)c(C(=O)O)cn1c23.C[C@H]1COc2c(N3CCN(C)CC3)c(F)cc3c(=O)c(C(=O)O)cn1c23.O [LEVOFLOXACIN] was tested. Which MIC (Klebsiella pneumoniae [1]) did it give?
Its MIC is 2 µg/mL.

What about the Activity (Enterobacter cloacae [6]) of the same compound?
Its Activity is 0%.

And the Activity (Klebsiella oxytoca [7])?
Its Activity is 0%.

And the MIC (Klebsiella pneumoniae [8])?
Its MIC is 2 µg/mL.

And the MIC (Klebsiella pneumoniae [9])?
The MIC was 2 µg/mL.

And the Activity (Klebsiella oxytoca [10])?
The Activity was 71%.

And the MIC (Escherichia coli [11])?
Its MIC is 2 µg/mL.

And the MIC (Citrobacter freundii [12])?
The MIC was 0.25 µg/mL.

And the Activity (Klebsiella pneumoniae [13])?
The Activity was 100%.

What about the MIC (Escherichia hermannii [14]) of the same compound?
Its MIC is 0.25 µg/mL.

And the MIC (Klebsiella oxytoca [15])?
Its MIC is 0.25 µg/mL.

And the MIC (Citrobacter freundii [16])?
Its MIC is 0.5 µg/mL.

And the Activity (Escherichia coli [17])?
Its Activity is 4%.

What about the Activity (Citrobacter freundii [18]) of the same compound?
Its Activity is 0%.

And the Activity (Escherichia coli [19])?
The Activity was 0%.

What about the Activity (Escherichia coli [20]) of the same compound?
The Activity was 79%.

What about the MIC (Enterobacter cloacae [21]) of the same compound?
Its MIC is 2 µg/mL.

What about the Activity (Klebsiella pneumoniae [22]) of the same compound?
Its Activity is 13%.

What about the Activity (Escherichia coli [23]) of the same compound?
The Activity was 100%.

And the MIC50 (Escherichia coli [24])?
Its MIC50 is 1 µg/mL.

And the MIC90 (Escherichia coli [24])?
The MIC90 was 4 µg/mL.

And the Activity (Escherichia coli [25])?
The Activity was 100%.

And the Activity (Klebsiella pneumoniae [26])?
The Activity was 0%.

And the MIC (Klebsiella oxytoca [27])?
The MIC was 0.5 µg/mL.

And the MIC (Escherichia hermannii [28])?
Its MIC is 0.25 µg/mL.

And the MIC (Enterobacter cloacae [29])?
The MIC was 0.25 µg/mL.

And the Activity (Escherichia coli [30])?
Its Activity is 0%.

And the MIC (Klebsiella pneumoniae [4])?
Its MIC is 2 µg/mL.

And the Activity (Escherichia hermannii [31])?
The Activity was 0%.

What about the Activity (Klebsiella pneumoniae [32]) of the same compound?
The Activity was 87%.

What about the MIC (Klebsiella oxytoca [5]) of the same compound?
Its MIC is 4 µg/mL.

CCn1cc(C(=O)O)c(=O)c2ccc(C)nc21 [NALIDIXIC ACID] was tested. Which MIC (Klebsiella pneumoniae [1]) did it give?
Its MIC is 32 µg/mL (≈ 138 µM).

What about the MIC (Klebsiella pneumoniae [33]) of the same compound?
Its MIC is 32 µg/mL (≈ 138 µM).

And the MIC (Klebsiella pneumoniae [2])?
The MIC was 32 µg/mL (≈ 138 µM).

And the Activity (Enterobacter cloacae [6])?
Its Activity is 57%.

What about the Activity (Klebsiella oxytoca [7]) of the same compound?
Its Activity is 57%.

And the MIC (Escherichia coli [34])?
The MIC was 16 µg/mL (≈ 68.9 µM).

And the MIC (Klebsiella pneumoniae [3])?
The MIC was 64 µg/mL (≈ 276 µM).

And the MIC (Klebsiella pneumoniae [8])?
Its MIC is 16 µg/mL (≈ 68.9 µM).

And the MIC (Klebsiella pneumoniae [9])?
Its MIC is 32 µg/mL (≈ 138 µM).

And the MIC (Klebsiella pneumoniae [35])?
Its MIC is 16 µg/mL (≈ 68.9 µM).

And the MIC (Escherichia coli [36])?
Its MIC is 16 µg/mL (≈ 68.9 µM).

What about the Activity (Klebsiella oxytoca [10]) of the same compound?
The Activity was 43%.

And the MIC (Escherichia coli [37])?
The MIC was 16 µg/mL (≈ 68.9 µM).

And the MIC (Escherichia coli [38])?
Its MIC is 32 µg/mL (≈ 138 µM).

What about the MIC (Escherichia coli [11]) of the same compound?
Its MIC is 32 µg/mL (≈ 138 µM).

What about the MIC (Citrobacter freundii [12]) of the same compound?
Its MIC is 16 µg/mL (≈ 68.9 µM).

And the Activity (Klebsiella pneumoniae [13])?
The Activity was 20%.

What about the MIC (Escherichia hermannii [14]) of the same compound?
Its MIC is 32 µg/mL (≈ 138 µM).

What about the MIC (Klebsiella oxytoca [15]) of the same compound?
Its MIC is 16 µg/mL (≈ 68.9 µM).

What about the MIC (Citrobacter freundii [16]) of the same compound?
The MIC was 16 µg/mL (≈ 68.9 µM).

What about the MIC (Klebsiella pneumoniae [39]) of the same compound?
The MIC was 16 µg/mL (≈ 68.9 µM).

What about the MIC (Escherichia coli [40]) of the same compound?
Its MIC is 16 µg/mL (≈ 68.9 µM).

And the Activity (Escherichia coli [17])?
Its Activity is 87%.

And the Activity (Citrobacter freundii [18])?
The Activity was 57%.

And the Activity (Escherichia coli [19])?
Its Activity is 0%.

And the Activity (Escherichia coli [20])?
Its Activity is 13%.

And the MIC (Enterobacter cloacae [21])?
Its MIC is 32 µg/mL (≈ 138 µM).

And the Activity (Klebsiella pneumoniae [22])?
Its Activity is 87%.

What about the Activity (Escherichia coli [23]) of the same compound?
Its Activity is 100%.

What about the MIC50 (Escherichia coli [24]) of the same compound?
Its MIC50 is 32 µg/mL (≈ 138 µM).

And the MIC90 (Escherichia coli [24])?
Its MIC90 is > 128 µg/mL.

What about the MIC (Escherichia coli [41]) of the same compound?
Its MIC is 32 µg/mL (≈ 138 µM).

And the MIC (Escherichia coli [42])?
The MIC was 16 µg/mL (≈ 68.9 µM).

And the Activity (Escherichia coli [25])?
Its Activity is 50%.

What about the Activity (Klebsiella pneumoniae [26]) of the same compound?
Its Activity is 80%.

And the MIC (Klebsiella oxytoca [27])?
The MIC was 16 µg/mL (≈ 68.9 µM).

What about the MIC (Escherichia hermannii [28]) of the same compound?
The MIC was 16 µg/mL (≈ 68.9 µM).

And the MIC (Enterobacter cloacae [29])?
The MIC was 16 µg/mL (≈ 68.9 µM).

What about the Activity (Escherichia coli [30]) of the same compound?
Its Activity is 50%.

What about the MIC (Klebsiella pneumoniae [4]) of the same compound?
Its MIC is 32 µg/mL (≈ 138 µM).

What about the Activity (Escherichia hermannii [31]) of the same compound?
The Activity was 57%.

What about the MIC (Escherichia coli [43]) of the same compound?
Its MIC is 16 µg/mL (≈ 68.9 µM).

And the Activity (Klebsiella pneumoniae [32])?
Its Activity is 13%.

And the MIC (Escherichia coli [44])?
Its MIC is 32 µg/mL (≈ 138 µM).

What about the MIC (Klebsiella oxytoca [5]) of the same compound?
Its MIC is > 128 µg/mL.
